Assay results from US7202274B2, “Cyclic hemiacetal derivative and use thereof” (Senju Pharmaceutical Co., Ltd., priority 2002, dated 2007).
Where two headings read alike, the source gives them in different places.

Legend:
[1] = Aqueous humor penetration test; type: in vivo, Japanese white rabbits; conditions: rabbit
Method: The suspension of Formulation Example 4 to be mentioned later was instilled by 50 μL into the both eyes of Japanese white rabbits (body weight about 2 kg, purchased from Fukusaki Rabbit Union). At 0.25, 0.5, 1 and 3 hr after the instillation, the rabbits were sacrificed with pentobarbital and aqueous humor was recovered. Using a column switching system HPLC, the concentration of Compound 1 in the aqueous humor was measured.

N1E-115 cells = type: cell-based; conditions: mouse, 24 h
Method: Mouse neuroblastoma derived cell lines (N1E-115 cells) were seeded in a 96 well microplate at 10^4 per well and cultured overnight in Dulbecco's Modified Eagle's Minimum Essential Medium (100 μL, DMEM, GIBCO) containing 10% FBS at 37° C. under 5% CO2. The whole amount of the culture solution was removed, and the medium was changed to various concentrations of a test drug solution (100 μL, prepared by dissolving Compound 1 in 99.5% ethanol and adjusting final concentration of ethanol to 1% with DMEM) and the cells were cultured for 24 hr. The culture supernatant and cells were separately recovered. The cells were ultrasonicated to give soluble fractions and the lactic dehydrogenase (LDH) activity of each of them was determined with an LDH cytotoxicity detection kit (MK401, manufactured by Takara Bio Inc.), and an LDH release rate was determined by the following formula and taken as a proportion of the cells suffered from cytotoxicity. LDH release rate (%)={LDH activity of culture supernatant/(LDH activity of culture supernatant+intracellular LDH activity)}×100
LD50 was determined from the LDH release rate at each test drug concentration by LD50/ED50 probit method of SAS preclinical package (Ver. 6.12).

## Cc1ccccc1NC(=S)N[C@@H](CC(C)C)C(=O)N[C@H]1CCOC1O (stereo partly drawn) [Compound 9, (2S)-4-methyl-2-((((2-methylphenyl)amino)thioxomethyl)amino)-N-((3S)-tetrahydro-2-hydroxy-3-furanyl)pentanamide]
other
  melting point: 57.9 to 58.9 °C

## CC(C)C[C@H](NC(=S)Nc1ccccc1)C(=O)N[C@H]1CCOC1O (stereo partly drawn) [Compound 1, (2S)-4-methyl-2-(((phenylamino)thioxomethyl)amino)-N-((3S)-tetrahydro-2-hydroxy-3-furanyl)pentanamide]
[1]; Japanese white, aqueous humor, topical, 50 μL per eye, 0-3 hr after the instillation of the suspension of Formulation Example 4, read-out: area under drug concentration-time curve (AUC) of amount penetrated to aqueous humor
  AUC: 4.79 µM·h
[1]; Japanese white, aqueous humor, topical, 50 μL per eye, 50 μL instillation of the suspension of Formulation Example 4, read-out: concentration in the aqueous humor, maximum (Cmax)
  Cmax: 2900 nM
[1]; 50 μL instillation of the suspension of Formulation Example 4
  time at which concentration in the aqueous humor reached the maximum: 0.5 h
N1E-115 cells; 0.1 mM
  LDH release rate: 9.32 ± 0.07%
N1E-115 cells; 0.5 mM
  LDH release rate: 11.05 ± 0.72%
N1E-115 cells; 1 mM
  LDH release rate: 14.22 ± 1.14%
N1E-115 cells; 2 mM
  LDH release rate: 47.73 ± 1.66%

## Cc1cccc(NC(=S)N[C@@H](CC(C)C)C(=O)N[C@H]2CCOC2O)c1 (stereo partly drawn) [Compound 10, (2S)-4-methyl-2-((((3-methylphenyl)amino)thioxomethyl)amino)-N-((3S)-tetrahydro-2-hydroxy-3-furanyl)pentanamide]
other
  melting point: 61.4 to 61.9 °C

## CCC(C)[C@H](NC(=S)Nc1ccccc1)C(=O)N[C@H]1CCOC1O (stereo partly drawn) [Compound 2, (2S)-3-methyl-2-(((phenylamino)thioxomethyl)amino)-N-((3S)-tetrahydro-2-hydroxy-3-furanyl)pentanamide]
other
  melting point: 51.3 to 52.9 °C
